Laboratory results published in US11572590B2, “Methods for evaluating tumor cell spheroids using 3D microfluidic cell culture device” (Dana-Farber Cancer Institute, Inc., priority 2017, dated 2023).
Like-named read-outs stand apart in the source and are kept apart here.

Experiments:
Test in all cases: SelectScreen Kinase Profiling, single point inhibition and IC50 for off-target kinases
Type in all cases: biochemical
[1] = molecular target: off-target kinases (Homo sapiens, UniProt P00519, T315I); details: ABL1 T315I, mutant y, ZLYTE, ATP Km app
[2] = molecular target: T1, off-target kinases (Homo sapiens, UniProt P25098); details: ADRBK1 (GRK2), ZLYTE, ATP Km app
T1 sequence (P25098 1-689): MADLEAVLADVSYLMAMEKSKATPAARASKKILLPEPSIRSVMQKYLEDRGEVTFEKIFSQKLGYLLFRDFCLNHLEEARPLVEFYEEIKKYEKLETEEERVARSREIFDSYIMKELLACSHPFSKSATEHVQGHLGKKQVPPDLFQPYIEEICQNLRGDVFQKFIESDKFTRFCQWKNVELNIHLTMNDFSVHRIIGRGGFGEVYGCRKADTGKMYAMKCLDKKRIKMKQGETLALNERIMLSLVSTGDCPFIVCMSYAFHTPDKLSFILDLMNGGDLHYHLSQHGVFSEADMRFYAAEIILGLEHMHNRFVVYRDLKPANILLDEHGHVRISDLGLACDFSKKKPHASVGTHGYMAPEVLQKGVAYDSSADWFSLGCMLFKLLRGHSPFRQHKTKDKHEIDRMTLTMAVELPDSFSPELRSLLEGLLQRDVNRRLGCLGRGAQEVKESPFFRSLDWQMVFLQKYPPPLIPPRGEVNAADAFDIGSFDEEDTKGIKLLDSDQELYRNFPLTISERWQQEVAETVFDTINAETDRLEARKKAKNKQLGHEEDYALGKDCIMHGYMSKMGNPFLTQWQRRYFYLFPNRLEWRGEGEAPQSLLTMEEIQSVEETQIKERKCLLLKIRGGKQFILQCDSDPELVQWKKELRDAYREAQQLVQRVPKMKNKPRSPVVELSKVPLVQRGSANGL

[3] = molecular target: off-target kinases (Homo sapiens, UniProt P49674)
[4] = molecular target: T2, off-target kinases (Homo sapiens, UniProt Q8IWQ3); details: BRSK2, LanthaScreen Binding
T2 sequence (Q8IWQ3 1-736): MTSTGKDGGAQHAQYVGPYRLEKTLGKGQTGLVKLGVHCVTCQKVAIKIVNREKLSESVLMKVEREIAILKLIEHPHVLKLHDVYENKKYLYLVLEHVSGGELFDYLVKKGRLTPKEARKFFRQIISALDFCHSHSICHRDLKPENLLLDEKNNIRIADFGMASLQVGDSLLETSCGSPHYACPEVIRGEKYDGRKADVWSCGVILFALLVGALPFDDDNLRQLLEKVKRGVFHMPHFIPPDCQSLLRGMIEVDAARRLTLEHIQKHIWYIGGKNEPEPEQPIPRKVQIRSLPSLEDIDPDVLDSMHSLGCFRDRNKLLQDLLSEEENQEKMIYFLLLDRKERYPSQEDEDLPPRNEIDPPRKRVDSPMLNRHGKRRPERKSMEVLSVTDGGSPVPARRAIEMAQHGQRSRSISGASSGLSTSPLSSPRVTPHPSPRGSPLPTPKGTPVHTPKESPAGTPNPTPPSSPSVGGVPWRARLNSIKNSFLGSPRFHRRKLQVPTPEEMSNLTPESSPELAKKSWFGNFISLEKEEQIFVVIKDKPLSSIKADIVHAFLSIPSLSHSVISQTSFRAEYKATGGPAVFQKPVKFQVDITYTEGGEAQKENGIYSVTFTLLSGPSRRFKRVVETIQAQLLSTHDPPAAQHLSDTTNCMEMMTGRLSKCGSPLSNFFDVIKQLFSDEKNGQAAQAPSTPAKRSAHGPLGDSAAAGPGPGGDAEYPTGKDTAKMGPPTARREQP

[5] = molecular target: off-target kinases (Homo sapiens, UniProt Q9UKE5); details: TNIK, LanthaScreen Binding
off-target kinases (Homo sapiens, UniProt Q9UKE5), sequence (Q9UKE5 whole entry): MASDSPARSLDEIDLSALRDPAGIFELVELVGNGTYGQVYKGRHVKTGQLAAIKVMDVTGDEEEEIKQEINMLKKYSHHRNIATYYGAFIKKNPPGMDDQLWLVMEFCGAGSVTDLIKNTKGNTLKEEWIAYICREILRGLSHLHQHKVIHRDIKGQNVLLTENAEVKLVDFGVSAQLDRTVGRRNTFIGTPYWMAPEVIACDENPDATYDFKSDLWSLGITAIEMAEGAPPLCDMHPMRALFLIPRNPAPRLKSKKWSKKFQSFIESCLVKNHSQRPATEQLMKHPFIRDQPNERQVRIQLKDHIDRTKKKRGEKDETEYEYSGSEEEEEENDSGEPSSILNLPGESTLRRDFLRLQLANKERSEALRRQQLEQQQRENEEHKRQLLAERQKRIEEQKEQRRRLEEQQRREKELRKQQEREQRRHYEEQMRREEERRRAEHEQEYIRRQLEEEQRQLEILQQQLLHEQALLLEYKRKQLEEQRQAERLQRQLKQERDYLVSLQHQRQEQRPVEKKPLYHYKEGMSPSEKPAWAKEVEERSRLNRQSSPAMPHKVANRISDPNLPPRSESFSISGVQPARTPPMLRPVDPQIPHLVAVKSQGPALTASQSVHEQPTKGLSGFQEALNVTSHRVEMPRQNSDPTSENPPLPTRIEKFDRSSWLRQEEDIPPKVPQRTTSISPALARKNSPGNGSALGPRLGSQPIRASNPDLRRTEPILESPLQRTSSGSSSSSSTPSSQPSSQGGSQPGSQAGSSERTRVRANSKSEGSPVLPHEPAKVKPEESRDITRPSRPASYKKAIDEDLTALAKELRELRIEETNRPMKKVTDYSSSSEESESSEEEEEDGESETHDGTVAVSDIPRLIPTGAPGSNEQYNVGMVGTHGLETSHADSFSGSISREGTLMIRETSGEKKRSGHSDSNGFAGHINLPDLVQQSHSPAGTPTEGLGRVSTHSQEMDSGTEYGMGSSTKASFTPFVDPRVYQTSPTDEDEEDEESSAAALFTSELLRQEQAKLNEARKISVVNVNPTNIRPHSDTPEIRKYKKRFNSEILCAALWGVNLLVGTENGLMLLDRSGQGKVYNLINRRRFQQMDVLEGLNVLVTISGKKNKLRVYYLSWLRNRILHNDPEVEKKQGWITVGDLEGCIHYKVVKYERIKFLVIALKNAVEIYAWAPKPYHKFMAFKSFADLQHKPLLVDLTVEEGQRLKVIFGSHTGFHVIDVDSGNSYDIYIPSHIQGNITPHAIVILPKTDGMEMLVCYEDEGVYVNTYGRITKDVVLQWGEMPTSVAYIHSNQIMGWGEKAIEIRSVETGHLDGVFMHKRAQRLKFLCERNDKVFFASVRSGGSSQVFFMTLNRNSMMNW

off-target kinases (Homo sapiens, UniProt P49674), sequence (P49674 whole entry): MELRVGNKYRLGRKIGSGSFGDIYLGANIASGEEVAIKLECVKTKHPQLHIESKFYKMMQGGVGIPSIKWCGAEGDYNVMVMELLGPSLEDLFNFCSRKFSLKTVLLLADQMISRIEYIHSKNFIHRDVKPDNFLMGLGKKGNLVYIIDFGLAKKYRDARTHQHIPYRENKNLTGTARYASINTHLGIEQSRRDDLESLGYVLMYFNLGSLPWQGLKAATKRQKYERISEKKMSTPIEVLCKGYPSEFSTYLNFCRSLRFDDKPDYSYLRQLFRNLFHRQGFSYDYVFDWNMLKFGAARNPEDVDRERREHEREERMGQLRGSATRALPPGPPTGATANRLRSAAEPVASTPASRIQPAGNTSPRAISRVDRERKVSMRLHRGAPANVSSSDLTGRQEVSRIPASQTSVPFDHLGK

N#Cc1cc(-c2ncnc(Nc3ccc(N4CCN(C5COC5)CC4)cc3)n2)ccc1OC1CCOCC1 [Compound 1, 5-(4-((4-(4-(oxetan-3-yl)piperazin-1-yl)phenyl)amino)-1,3,5-triazin-2-yl)-2-((tetrahydro-2H-pyran-4-yl)oxy)benzonitrile]
inhibition ([1]; read-out: % Inhibition 1): 30% | inhibition ([1]; read-out: % Inhibition 2): 29% | inhibition ([1]; read-out: % Inhibition Avg): 29% | inhibition ([2]; read-out: % Inhibition 1): 3% | inhibition ([2]; read-out: % Inhibition 2): 7% | inhibition ([2]; read-out: % Inhibition Avg): 5% | inhibition ([3]; CSNK1E (CK1 epsilon), ZLYTE, ATP Km app, read-out: % Inhibition 2): 4% | inhibition ([3]; CSNK1E (CK1 epsilon), ZLYTE, ATP Km app, read-out: % Inhibition Avg): 1% | inhibition ([3]; read-out: % Inhibition 1): -2% | inhibition ([4]; read-out: % Inhibition 1): 16% | inhibition ([4]; read-out: % Inhibition 2): 17% | inhibition ([4]; read-out: % Inhibition Avg): 17% | inhibition ([5]; read-out: % Inhibition 1): 46% | inhibition ([5]; read-out: % Inhibition 2): 43% | inhibition ([5]; read-out: % Inhibition Avg): 45%
